Measured values taken from patent publication US20090117127A1, “Novel Compounds and Methods for Their Production” (priority 2006, published 2009).

How the values were obtained:
Hsp90 = Hsp90 (Homo sapiens, UniProt P07900); conditions: cited from earlier work
Reverse transcriptase = conditions: cited from earlier work
LXF 1121L = experiment: monolayer proliferation assay, modified propidium iodide assay; assay type: cell-based, human; conditions: LXF 1121L (lung, large cell ca), 4 days continuous exposure
Procedure: (§1) In vitro evaluation of compounds for anticancer activity in a panel of human tumour cell lines in a monolayer proliferation assay was carried out at the Oncotest Testing Facility, Institute for Experimental Oncology, Oncotest GmbH, Freiburg.
(§2) The Oncotest cell lines are established from human tumor xenografts as described by Roth et al., (1999). The origin of the donor xenografts was described by Fiebig et al., (1999). Other cell lines are either obtained from the NCI (DU145, MCF-7) or purchased from DSMZ, Braunschweig, Germany.
(§3) All cell lines, unless otherwise specified, were grown at 37° C. in a humidified atmosphere (95% air, 5% CO2) in a ‘ready-mix’ medium containing RPMI 1640 medium, 10% fetal calf serum, and 0.1 mg/mL gentamicin (PAA, Cölbe, Germany).
(§4) A modified propidium iodide assay was used to assess the effects of the test compound(s) on the growth of human tumour cell lines (Dengler et al., (1995)).
(§5) Briefly, cells were harvested from exponential phase cultures by trypsinization, counted and plated in 96 well flat-bottomed microtitre plates at a cell density dependent on the cell line (5-10.000 viable cells/well). After 24 h recovery to allow the cells to resume exponential growth, 0.010 mL of culture medium (6 control wells per plate) or culture medium containing the 11-O-desmethylmacbecin analogue were added to the wells. Each concentration was plated in triplicate. Compounds were applied in two concentrations (1 μg/mL and 10 μg/mL). Following 4 days of continuous exposure, cell culture medium with or without test compound was replaced by 0.2 mL of an aqueous propidium iodide (PI) solution (7 mg/L). To measure the proportion of living cells, cells were permeabilized by freezing the plates. After thawing the plates, fluorescence was measured using the Cytofluor 4000 microplate reader (excitation 530 nm, emission 620 nm), giving a direct relationship to the total number of viable cells. Growth inhibition was expressed as treated/control×100 (% T/C).
(§6) In vitro evaluation of the test compounds for anticancer activity in a panel of human tumour cell lines in a monolayer proliferation assay was carried out as described in the general methods using a modified propidium iodide assay.

DU145 = experiment: as above; assay type: cell-based, human; conditions: DU145 (prostate, PTEN positive), 4 days continuous exposure
Procedure: as §1, §2, §3, §4, §5, §6

MCF-7 = experiment: as above; assay type: cell-based, human; conditions: MCF-7 (breast), 4 days continuous exposure
Procedure: as §1, §2, §3, §4, §5, §6

CXF HT29 = experiment: as above; assay type: cell-based, human; conditions: CXF HT29 (colon), 4 days continuous exposure
Procedure: as §1, §2, §3, §4, §5, §6

MEXF 394NL = experiment: as above; assay type: cell-based, human; conditions: MEXF 394NL (melanoma), 4 days continuous exposure
Procedure: as §1, §2, §3, §4, §5, §6

CNXF 498NL = experiment: as above; assay type: cell-based, human; conditions: CNXF 498NL (CNS), 4 days continuous exposure
Procedure: as §1, §2, §3, §4, §5, §6

[1] = target: terminal deoxynucleotidyl transferase (Homo sapiens, UniProt P04053); conditions: cited from earlier work
Chain of terminal deoxynucleotidyl transferase (P04053 whole entry, species assumed): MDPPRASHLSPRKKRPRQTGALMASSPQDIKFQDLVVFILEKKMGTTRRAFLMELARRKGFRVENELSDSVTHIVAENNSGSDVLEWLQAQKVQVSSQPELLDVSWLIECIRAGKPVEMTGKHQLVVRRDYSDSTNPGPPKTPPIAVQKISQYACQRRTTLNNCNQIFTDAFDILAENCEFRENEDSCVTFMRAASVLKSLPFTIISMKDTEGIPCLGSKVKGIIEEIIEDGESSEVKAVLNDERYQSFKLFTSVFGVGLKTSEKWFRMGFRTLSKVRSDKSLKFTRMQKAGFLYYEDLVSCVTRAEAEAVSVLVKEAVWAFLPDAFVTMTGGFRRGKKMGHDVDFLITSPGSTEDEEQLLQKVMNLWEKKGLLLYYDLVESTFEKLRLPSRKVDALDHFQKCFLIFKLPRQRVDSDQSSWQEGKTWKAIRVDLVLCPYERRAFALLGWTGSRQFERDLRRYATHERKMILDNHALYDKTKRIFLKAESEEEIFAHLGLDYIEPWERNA

Compound	binding affinity to Hsp90, greater than 17-AAG (Hsp90; relative to 17-AAG)	binding affinity to Hsp90, greater than geldanamycin (Hsp90; relative to geldanamycin)	inhibition of reverse transcriptase activity (Reverse transcriptase)	Test/Control (%) at drug concentration (LXF 1121L; 1 μg/mL)	Test/Control (%) at drug concentration (LXF 1121L; 10 μg/mL)	Test/Control (%) at drug concentration (DU145; 1 μg/mL)	Test/Control (%) at drug concentration (DU145; 10 μg/mL)	Test/Control (%) at drug concentration (MCF-7; 1 μg/mL)	Test/Control (%) at drug concentration (MCF-7; 10 μg/mL)	Test/Control (%) at drug concentration (CXF HT29; 1 μg/mL)	Test/Control (%) at drug concentration (CXF HT29; 10 μg/mL)	Test/Control (%) at drug concentration (MEXF 394NL; 1 μg/mL)	Test/Control (%) at drug concentration (MEXF 394NL; 10 μg/mL)	Test/Control (%) at drug concentration (CNXF 498NL; 1 μg/mL)	Test/Control (%) at drug concentration (CNXF 498NL; 10 μg/mL)	inhibition of terminal deoxynucleotidyl transferase activity [1]
CO[C@H]1C[C@H](C)Cc2cc(O)cc(c2)NC(=O)/C=C/CC[C@H](OC)[C@@H](OC(N)=O)/C(C)=C/[C@H](C)[C@H]1O [KOSN1559]	8 fold	4 fold	–	–	–	–	–	–	–	–	–	–	–	–	–	–
CO[C@H]1[C@@H](OC)C[C@H](C)[C@@H](OC)C2=CC(=O)C=C(NC(=O)/C(C)=C/C=C\[C@H](C)[C@@H](OC(N)=O)/C(C)=C/[C@@H]1C)C2=O [Macbecin, macbecin, reference compound]	–	–	not inhibited	30%	17%	13%	5%	42%	19%	22%	8%	16%	13%	29%	14%	not inhibited
CO[C@H]1C[C@H](C)[C@@H](O)C2=CC(=O)C=C(NC(=O)/C(C)=C/C=C\[C@H](C)[C@@H](OC(N)=O)/C(C)=C/[C@H](C)[C@H]1O)C2=O [compound 14, 11-O-desmethyl-15-O-desmethylmacbecin]	–	–	–	83.3%	57.7%	78.7%	35%	83.7%	58.7%	88.7%	55%	50.7%	77%	82.7%	45.3%	–
CO[C@H]1C[C@H](C)CC2=CC(=O)C=C(NC(=O)/C(C)=C/C=C\[C@H](C)[C@@H](OC(N)=O)/C(C)=C/[C@H](C)[C@H]1O)C2=O [compound 15, 11-O-desmethyl-15-desmethoxymacbecin]	–	–	–	57.7%	11.7%	16.3%	6%	49.3%	13.7%	37.7%	9%	22%	5%	30%	9%	–
CO[C@H]1C[C@H](C)CC2=CC(=O)C=C(NC(=O)/C(C)=C/CC[C@H](C)[C@@H](OC(N)=O)/C(C)=C/[C@H](C)[C@H]1O)C2=O [compound 17, 4,5-dihydro-11-O-desmethyl-15-desmethoxymacbecin]	–	–	–	55%	17%	18%	5%	35%	5%	52%	6%	38%	4%	35%	8%	–
